Test results published in the NIST ThermoML archive (doi:10.1016/j.jct.2012.08.033).

Test: xn = mol fraction of the nth substance listed
Settings: Liquid, vibrating tube

C1CCOC1 [tetrahydrofuran] + O
mass density [kg/m3]
Settings | 78.5 kPa | 100.7 kPa
293.24 K, x2 = 0.3407 | 907.81 | 907.93
293.24 K, x2 = 0.988 | 995.8 | 995.84
293.25 K, x2 = 0.9826 | 994.97 | 994.99
293.25 K, x2 = 0.9921 | 996.53 | 996.6
293.26 K, x2 = 0.0208 | 888.12 | 888.29
293.26 K, x2 = 0.0404 | 889.02 | 889.18
293.26 K, x2 = 0.0872 | 892.05 | 892.21
293.26 K, x2 = 0.9418 | 990.31 | 990.26
293.26 K, x2 = 0.9519 | 991.46 | 991.41
293.26 K, x2 = 0.9573 | 992.11 | 992.05
293.26 K, x2 = 0.9709 | 993.71 | 993.65
293.26 K, x2 = 0.9723 | 993.83 | 993.77
293.27 K, x2 = 0.0269 | 888.46 | 888.63
293.27 K, x2 = 0.0429 | 889.18 | 889.35
293.27 K, x2 = 0.0593 | 890.14 | 890.31
293.27 K, x2 = 0.6092 | 934.46 | 934.53
293.28 K, x2 = 0.8857 | 981.21 | 981.18
298.21 K, x2 = 0.3407 | 902.44 | 902.65
298.22 K, x2 = 0.0872 | 886.71 | 886.95
298.22 K, x2 = 0.988 | 994.42 | 994.44
298.22 K, x2 = 0.9921 | 995.23 | 995.24
298.23 K, x2 = 0.0269 | 883.01 | 883.22
298.23 K, x2 = 0.9418 | 987.77 | 987.8
298.23 K, x2 = 0.9723 | 992.08 | 992.11
298.23 K, x2 = 0.9826 | 993.47 | 993.49
298.24 K, x2 = 0.0208 | 882.73 | 882.93
298.24 K, x2 = 0.0593 | 884.65 | 884.9
298.24 K, x2 = 0.9573 | 989.99 | 990.02
298.24 K, x2 = 0.9709 | 991.93 | 991.95
298.25 K, x2 = 0.0429 | 883.9 | 883.99
298.25 K, x2 = 0.6092 | 929.43 | 929.58
298.25 K, x2 = 0.9519 | 989.15 | 989.18
298.26 K, x2 = 0.8857 | 977.6 | 977.65
298.29 K, x2 = 0.0404 | 883.74 | 883.83
303.07 K, x2 = 0.3407 | 897.21 | 897.4
303.09 K, x2 = 0.9418 | 985.17 | 985.19
303.1 K, x2 = 0.0269 | 877.63 | 877.86
303.1 K, x2 = 0.0872 | 881.49 | 881.71
303.1 K, x2 = 0.9519 | 986.82 | 986.81
303.1 K, x2 = 0.988 | 993 | 992.98
303.1 K, x2 = 0.9921 | 993.8 | 993.78
303.11 K, x2 = 0.0404 | 878.23 | 878.45
303.11 K, x2 = 0.0593 | 879.35 | 879.58
303.11 K, x2 = 0.9573 | 987.79 | 987.78
303.11 K, x2 = 0.9723 | 990.22 | 990.21
303.11 K, x2 = 0.9826 | 991.87 | 991.85
303.12 K, x2 = 0.0208 | 877.38 | 877.61
303.12 K, x2 = 0.6092 | 924.49 | 924.62
303.12 K, x2 = 0.9709 | 990.08 | 990.06
303.13 K, x2 = 0.0429 | 878.4 | 878.63
303.13 K, x2 = 0.8857 | 974.05 | 974.07
308.19 K, x2 = 0.3407 | 891.62 | 891.86
308.22 K, x2 = 0.0872 | 875.87 | 876.14
308.22 K, x2 = 0.9418 | 982.23 | 982.27
308.22 K, x2 = 0.9519 | 984.2 | 984.24
308.22 K, x2 = 0.9921 | 991.99 | 992.01
308.23 K, x2 = 0.0269 | 871.92 | 872.19
308.23 K, x2 = 0.0404 | 872.54 | 872.75
308.23 K, x2 = 0.0593 | 873.61 | 873.88
308.23 K, x2 = 0.988 | 991.08 | 991.1
308.24 K, x2 = 0.0208 | 871.65 | 871.93
308.24 K, x2 = 0.9723 | 988.08 | 988.11
308.24 K, x2 = 0.9826 | 989.93 | 989.95
308.25 K, x2 = 0.6092 | 919.21 | 919.38
308.25 K, x2 = 0.8857 | 970.11 | 970.18
308.25 K, x2 = 0.9573 | 985.24 | 985.28
308.25 K, x2 = 0.9709 | 987.99 | 987.82
308.26 K, x2 = 0.0429 | 872.71 | 872.89
313.26 K, x2 = 0.3407 | 886.03 | 886.33
313.28 K, x2 = 0.0269 | 866.21 | 866.56
313.28 K, x2 = 0.0872 | 869.29 | 869.63
313.28 K, x2 = 0.9418 | 979.18 | 979.28
313.29 K, x2 = 0.0593 | 867.9 | 868.25
313.29 K, x2 = 0.9519 | 981.33 | 981.43
313.29 K, x2 = 0.9921 | 990.02 | 990.1
313.3 K, x2 = 0.0404 | 866.86 | 867.21
313.3 K, x2 = 0.988 | 989.08 | 989.16
313.31 K, x2 = 0.9826 | 987.78 | 987.87
313.32 K, x2 = 0.6092 | 913.96 | 914.2
313.32 K, x2 = 0.9723 | 985.71 | 985.8
313.33 K, x2 = 0.9709 | 985.46 | 985.55
313.34 K, x2 = 0.0208 | 866.07 | 866.42
313.34 K, x2 = 0.8857 | 966.2 | 966.33
313.34 K, x2 = 0.9573 | 982.55 | 982.65
313.35 K, x2 = 0.0429 | 867.1 | 867.44
